Measurements taken from patent US20160113925A1, “METHODS OF TREATING CANCER WITH A COMBINATION OF GLUCOSE MODULATORS AND BCL-2 INHIBITORS” (EMORY UNIVERSITY, priority 2014, published 2016).
Counter-ions that a name gives are not always drawn.

Experiments:
Assay type in all cases: cell-based
MM lines = assay: Impact of glucose or glutamine withdrawal on sensitivity of MM lines to ABT-199 (venetoclax)
Description: Eight MM cell lines were assessed for induction of apoptosis upon culture in media deprived of glucose, glutamine or both nutrients. While all cells are growth inhibited the extent of apoptosis elicited was highly variable. […] Continued survival upon nutrient deprivation despite induction of BIM could be due to increased sequestration of BIM with the induced BCL-2. […] The BH3 mimetic ABT-199 (venetoclax) targets the BIM-BCL-2 interaction. The impact of either glucose or glutamine withdrawal on sensitivity to ABT-199 (venetoclax) was evaluated.

[1] = tested on: L363, KMS11, MM.1S and AMO1 cell lines; assay: Metabolic supplementation of glutamine deprived MM cell lines: reversal of sensitization to ABT-199; conditions: glutamine deprived L363, KMS11, MM.1S and AMO1 cell lines supplemented with metabolite
From the text: The metabolic specificity of glutamine deprivation-induced sensitization to ABT-199 […]. Glutamine deprived cells were supplemented with various metabolites generated by metabolism of glutamine and evaluated for their ability to reverse sensitization to ABT-199. Glutamine deprived MM cell lines were supplemented with galactose, dimethyl fumarate, dimethyl succinate, oxaloacetic acid, 2 methyl pyruvate, a mixture of non-essential amino acids or cell permeant dimethyl alpha ketoglutarate (DMK).

MM patient samples = assay: Sensitization of MM patient samples to ABT-199 (venetoclax) by ritonavir or DON; conditions: for efficacy of the combination with ABT-199 (venetoclax) in patient samples: highly responsive samples were from relapse refractory patients
From the text: (§1) Ritonavir is an HIV […] that is also a reversible non-competitive inhibitor of glucose transport through GLUT4. […] Glutamine antagonist DON (6-Diazo-5-oxo-L-norleucine) effectively block first step of glutaminolysis pathway and thus restrict cells for using glutamine.

MM cell lines = assay: Sensitization of MM cell lines to ABT-199 (venetoclax) by ritonavir or DON; conditions: MM cell lines cultured with ritonavir (40 uM) or DON (0.1 mM); FIGS. 1 and 2
From the text: as §1

venetoclax [ABT-199 (venetoclax)]
sensitization of MM lines to ABT-199 (venetoclax) on nutrient withdrawal (MM lines): sensitize all MM lines

COC(=O)CCC(=O)OC [dimethyl succinate]
reversal of glutamine deprivation-induced sensitization to ABT-199 [1]: only the addition of DMK reversed sensitization

COC(=O)C(C)=O [2 methyl pyruvate]
reversal of glutamine deprivation-induced sensitization to ABT-199 [1]: only the addition of DMK reversed sensitization

CC(C)c1nc(CN(C)C(=O)N[C@H](C(=O)N[C@@H](Cc2ccccc2)C[C@H](O)[C@H](Cc2ccccc2)NC(=O)OCc2cncs2)C(C)C)cs1 [Ritonavir, 1,3-thiazol-5-ylmethyl N-[(2S,3S,5S)-3-hydroxy-5-[[(2S)-3-methyl-2-[[methyl-[(2-propan-2-yl-1,3-thiazol-4-yl)methyl]carbamoyl]amino]butanoyl]amino]-1,6-diphenylhexan-2-yl]carbamate]
sensitivity to ABT-199 (venetoclax) in patient samples (MM patient samples): significantly increased sensitivity | efficacy of the combination with ABT-199 (venetoclax) in patient samples (MM patient samples): highly efficacious | sensitivity to ABT-199 (venetoclax) in MM cell lines (MM cell lines): significantly increased sensitivity

O=C[C@H](O)[C@@H](O)[C@@H](O)[C@H](O)CO [galactose]
reversal of glutamine deprivation-induced sensitization to ABT-199 [1]: only the addition of DMK reversed sensitization

[N-]=[N+]=CC(=O)CC[C@H](N)C(=O)O [DON, 6-Diazo-5-oxo-L-norleucine]
sensitivity to ABT-199 (venetoclax) in patient samples (MM patient samples): increased sensitivity | efficacy of the combination with ABT-199 (venetoclax) in patient samples (MM patient samples): highly efficacious | sensitivity to ABT-199 (venetoclax) in MM cell lines (MM cell lines): increased sensitivity

COC(=O)/C=C/C(=O)OC [dimethyl fumarate]
reversal of glutamine deprivation-induced sensitization to ABT-199 [1]: only the addition of DMK reversed sensitization

COC(=O)CCC(=O)C(=O)OC [DMK, dimethyl alpha ketoglutarate]
reversal of glutamine deprivation-induced sensitization to ABT-199 [1]: reversed sensitization

O=C(O)CC(=O)C(=O)O [oxaloacetic acid]
reversal of glutamine deprivation-induced sensitization to ABT-199 [1]: only the addition of DMK reversed sensitization
